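Method: 48-hour compound exposure of cells in 96-well plates, five concentrations, linear interpolation of endpoints. The concentration for full growth arrest is given as TGI.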
Key:
Experiment in all cases: NCI tumour cell line growth inhibition, 48 h
786-0 renal = system: 786-0 renal
A549 NSCLC = system: A549 NSCLC
ACHN renal = system: ACHN renal
BT-549 breast = system: BT-549 breast
CAKI-1 renal = system: CAKI-1 renal
CCRF-CEM leukemia = system: CCRF-CEM leukemia
COLO 205 colon = system: COLO 205 colon
DU-145 prostate = system: DU-145 prostate
EKVX NSCLC = system: EKVX NSCLC
HCC-2998 colon = system: HCC-2998 colon
HCT-116 colon = system: HCT-116 colon
HCT-15 colon = system: HCT-15 colon
HL-60(TB) leukemia = system: HL-60(TB) leukemia
HOP-62 NSCLC = system: HOP-62 NSCLC
HOP-92 NSCLC = system: HOP-92 NSCLC
HS 578T breast = system: HS 578T breast
HT29 colon = system: HT29 colon
IGROV1 ovarian = system: IGROV1 ovarian
K-562 leukemia = system: K-562 leukemia
KM12 colon = system: KM12 colon
LOX IMVI melanoma = system: LOX IMVI melanoma
M14 melanoma = system: M14 melanoma
MALME-3M melanoma = system: MALME-3M melanoma
MCF7 breast = system: MCF7 breast
MDA-MB-231 breast = system: MDA-MB-231 breast
MDA-MB-435 = system: MDA-MB-435
MDA-N = system: MDA-N
MOLT-4 leukemia = system: MOLT-4 leukemia
NCI-H226 lung = system: NCI-H226 lung
NCI-H23 lung = system: NCI-H23 lung
NCI-H460 lung = system: NCI-H460 lung
NCI-H522 lung = system: NCI-H522 lung
NCI/ADR-RES ovarian = system: NCI/ADR-RES ovarian
OVCAR-3 ovarian = system: OVCAR-3 ovarian
OVCAR-4 ovarian = system: OVCAR-4 ovarian
OVCAR-5 ovarian = system: OVCAR-5 ovarian
OVCAR-8 ovarian = system: OVCAR-8 ovarian
PC-3 prostate = system: PC-3 prostate
RPMI-8226 leukemia = system: RPMI-8226 leukemia
RXF 393 renal = system: RXF 393 renal
SF-268 CNS = system: SF-268 CNS
SF-295 CNS = system: SF-295 CNS
SF-539 CNS = system: SF-539 CNS
SK-MEL-2 melanoma = system: SK-MEL-2 melanoma
SK-MEL-28 melanoma = system: SK-MEL-28 melanoma
SK-MEL-5 melanoma = system: SK-MEL-5 melanoma
SK-OV-3 ovarian = system: SK-OV-3 ovarian
SN12C renal = system: SN12C renal
SNB-19 CNS = system: SNB-19 CNS
SNB-75 CNS = system: SNB-75 CNS
SR leukemia = system: SR leukemia
SW-620 colon = system: SW-620 colon
T-47D breast = system: T-47D breast
TK-10 renal = system: TK-10 renal
U251 CNS = system: U251 CNS
UACC-257 melanoma = system: UACC-257 melanoma
UACC-62 melanoma = system: UACC-62 melanoma
UO-31 renal = system: UO-31 renal
A498 renal = system: A498 renal

`O=C(O)c1ccccc1CC1Cc2ccccc2C1` showed a TGI (786-0 renal) of over 100 µM, a TGI (A549 NSCLC) of over 100 µM and a TGI (ACHN renal) of over 100 µM. For the same compound, the TGI (BT-549 breast) was over 100 µM, the TGI (CAKI-1 renal) was over 100 µM and the TGI (CCRF-CEM leukemia) was over 100 µM. It also gave a TGI (COLO 205 colon) of over 100 µM, a TGI (DU-145 prostate) of over 100 µM and a TGI (EKVX NSCLC) of over 100 µM. For the same compound, the TGI (HCC-2998 colon) was over 100 µM, the TGI (HCT-116 colon) was over 100 µM and the TGI (HCT-15 colon) was over 100 µM. The TGI (HL-60(TB) leukemia) was over 100 µM, the TGI (HOP-62 NSCLC) was over 100 µM and the TGI (HOP-92 NSCLC) was over 100 µM. It also gave a TGI (HS 578T breast) of over 100 µM, a TGI (HT29 colon) of over 100 µM and a TGI (IGROV1 ovarian) of over 100 µM. It also gave a TGI (K-562 leukemia) of over 100 µM, a TGI (KM12 colon) of over 100 µM and a TGI (LOX IMVI melanoma) of over 100 µM. For the same compound, the TGI (M14 melanoma) was over 100 µM, the TGI (MALME-3M melanoma) was over 100 µM and the TGI (MCF7 breast) was over 100 µM. It also gave a TGI (MDA-MB-231 breast) of over 100 µM, a TGI (MDA-MB-435) of over 100 µM and a TGI (MDA-N) of over 100 µM. It also gave a TGI (MOLT-4 leukemia) of over 100 µM, a TGI (NCI-H226 lung) of over 100 µM and a TGI (NCI-H23 lung) of over 100 µM. It also gave a TGI (NCI-H460 lung) of over 100 µM, a TGI (NCI-H522 lung) of over 100 µM and a TGI (NCI/ADR-RES ovarian) of over 100 µM. It also gave a TGI (OVCAR-3 ovarian) of over 100 µM, a TGI (OVCAR-4 ovarian) of over 100 µM and a TGI (OVCAR-5 ovarian) of over 100 µM. For the same compound, the TGI (OVCAR-8 ovarian) was over 100 µM, the TGI (PC-3 prostate) was over 100 µM and the TGI (RPMI-8226 leukemia) was over 100 µM. For the same compound, the TGI (RXF 393 renal) was over 100 µM, the TGI (SF-268 CNS) was over 100 µM and the TGI (SF-295 CNS) was over 100 µM. For the same compound, the TGI (SF-539 CNS) was over 100 µM, the TGI (SK-MEL-2 melanoma) was over 100 µM and the TGI (SK-MEL-28 melanoma) was over 100 µM. It also gave a TGI (SK-MEL-5 melanoma) of over 100 µM, a TGI (SK-OV-3 ovarian) of over 100 µM and a TGI (SN12C renal) of over 100 µM. For the same compound, the TGI (SNB-19 CNS) was over 100 µM, the TGI (SNB-75 CNS) was over 100 µM and the TGI (SR leukemia) was over 100 µM. It also gave a TGI (SW-620 colon) of over 100 µM, a TGI (T-47D breast) of over 100 µM and a TGI (TK-10 renal) of over 100 µM. The TGI (U251 CNS) was over 100 µM, the TGI (UACC-257 melanoma) was over 100 µM and the TGI (UACC-62 melanoma) was over 100 µM. The TGI (UO-31 renal) was over 100 µM.

`CN(C)c1ccc(/C=C/c2ccc3ccccc3[n+]2C)cc1` gave a TGI (786-0 renal) of over 100 µM, a TGI (A498 renal) of 60.1 µM and a TGI (A549 NSCLC) of 22.5 µM. The TGI (ACHN renal) was 55.3 µM, the TGI (BT-549 breast) was 10.5 µM and the TGI (CCRF-CEM leukemia) was 24.6 µM. It also gave a TGI (DU-145 prostate) of 25.5 µM, a TGI (EKVX NSCLC) of 5.85 µM and a TGI (HCC-2998 colon) of 16.3 µM. For the same compound, the TGI (HCT-116 colon) was 10.9 µM, the TGI (HCT-15 colon) was 30.4 µM and the TGI (HL-60(TB) leukemia) was 3.48 µM. It also gave a TGI (HOP-62 NSCLC) of 25.6 µM, a TGI (HOP-92 NSCLC) of 5.19 µM and a TGI (HS 578T breast) of over 100 µM. For the same compound, the TGI (HT29 colon) was 8.46 µM, the TGI (IGROV1 ovarian) was over 100 µM and the TGI (K-562 leukemia) was over 100 µM. The TGI (KM12 colon) was 13.6 µM, the TGI (M14 melanoma) was 17.1 µM and the TGI (MALME-3M melanoma) was 11.2 µM. For the same compound, the TGI (MCF7 breast) was 14.4 µM, the TGI (MDA-MB-231 breast) was 12.6 µM and the TGI (MDA-MB-435) was 13.3 µM. For the same compound, the TGI (MDA-N) was 13 µM, the TGI (MOLT-4 leukemia) was 4.53 µM and the TGI (NCI-H226 lung) was 13.3 µM. The TGI (NCI-H23 lung) was 9.26 µM, the TGI (NCI-H460 lung) was 12 µM and the TGI (NCI/ADR-RES ovarian) was over 100 µM. The TGI (OVCAR-3 ovarian) was 15.5 µM, the TGI (OVCAR-5 ovarian) was 26.2 µM and the TGI (OVCAR-8 ovarian) was 4.3 µM. The TGI (PC-3 prostate) was 9.84 µM, the TGI (RXF 393 renal) was 9.84 µM and the TGI (SF-295 CNS) was 10 µM. For the same compound, the TGI (SK-MEL-2 melanoma) was 4.02 µM, the TGI (SK-MEL-28 melanoma) was 12.7 µM and the TGI (SK-MEL-5 melanoma) was 13.5 µM. For the same compound, the TGI (SK-OV-3 ovarian) was 60.6 µM, the TGI (SN12C renal) was 15.8 µM and the TGI (SNB-19 CNS) was over 100 µM. The TGI (SR leukemia) was 4.34 µM, the TGI (SW-620 colon) was 12.3 µM and the TGI (T-47D breast) was 6.26 µM. It also gave a TGI (TK-10 renal) of 17.7 µM, a TGI (U251 CNS) of 20.7 µM and a TGI (UACC-62 melanoma) of 41 µM. For the same compound, the TGI (UO-31 renal) was 9.62 µM.

`Cc1ccc(/C=C2\N=C(N3CCOCC3)NC2=O)cc1` gave a TGI (786-0 renal) of over 100 µM, a TGI (A549 NSCLC) of over 100 µM and a TGI (ACHN renal) of over 100 µM. For the same compound, the TGI (BT-549 breast) was over 100 µM, the TGI (CAKI-1 renal) was over 100 µM and the TGI (CCRF-CEM leukemia) was over 100 µM. It also gave a TGI (COLO 205 colon) of over 100 µM, a TGI (DU-145 prostate) of over 100 µM and a TGI (EKVX NSCLC) of over 100 µM. The TGI (HCC-2998 colon) was over 100 µM, the TGI (HCT-116 colon) was over 100 µM and the TGI (HCT-15 colon) was over 100 µM. The TGI (HL-60(TB) leukemia) was over 100 µM, the TGI (HOP-62 NSCLC) was over 100 µM and the TGI (HOP-92 NSCLC) was over 100 µM. The TGI (HS 578T breast) was over 100 µM, the TGI (HT29 colon) was over 100 µM and the TGI (IGROV1 ovarian) was over 100 µM. For the same compound, the TGI (KM12 colon) was over 100 µM, the TGI (LOX IMVI melanoma) was over 100 µM and the TGI (M14 melanoma) was over 100 µM. The TGI (MALME-3M melanoma) was over 100 µM, the TGI (MCF7 breast) was over 100 µM and the TGI (MDA-MB-231 breast) was over 100 µM. It also gave a TGI (MDA-MB-435) of over 100 µM, a TGI (MDA-N) of over 100 µM and a TGI (MOLT-4 leukemia) of over 100 µM. For the same compound, the TGI (NCI-H226 lung) was over 100 µM, the TGI (NCI-H23 lung) was over 100 µM and the TGI (NCI-H522 lung) was over 100 µM. The TGI (NCI/ADR-RES ovarian) was over 100 µM, the TGI (OVCAR-3 ovarian) was over 100 µM and the TGI (OVCAR-4 ovarian) was over 100 µM. For the same compound, the TGI (OVCAR-5 ovarian) was over 100 µM, the TGI (OVCAR-8 ovarian) was over 100 µM and the TGI (PC-3 prostate) was over 100 µM. The TGI (RPMI-8226 leukemia) was over 100 µM, the TGI (RXF 393 renal) was over 100 µM and the TGI (SF-268 CNS) was over 100 µM. It also gave a TGI (SF-295 CNS) of over 100 µM, a TGI (SF-539 CNS) of over 100 µM and a TGI (SK-MEL-2 melanoma) of over 100 µM. The TGI (SK-MEL-28 melanoma) was over 100 µM, the TGI (SK-OV-3 ovarian) was over 100 µM and the TGI (SN12C renal) was over 100 µM. For the same compound, the TGI (SNB-19 CNS) was over 100 µM, the TGI (SNB-75 CNS) was over 100 µM and the TGI (SR leukemia) was over 100 µM. The TGI (SW-620 colon) was over 100 µM, the TGI (T-47D breast) was over 100 µM and the TGI (TK-10 renal) was over 100 µM. For the same compound, the TGI (U251 CNS) was over 100 µM, the TGI (UACC-257 melanoma) was over 100 µM and the TGI (UACC-62 melanoma) was over 100 µM. The TGI (UO-31 renal) was over 100 µM.

Source: PubChem BioAssay (NCI)
